Test results taken from US5739111A, “Modulating body/cranial hair growth with derivatives of the α-type melanocyte-stimulating hormone” (Societe L'Oreal S.A., priority 1995, dated 1998).
Where a SMILES comes first, the peptide text is derived from it.

Test system: hair follicles
Assay: lengthening and survival of hair follicles maintained in vitro
Format: cell-based
Design: Mean lengthening: unit not given here
Method: Viable in vitro hair follicles were prepared according to the technique described in French Patent Application No. 95-08465, filed July 12, 1995 and assigned to the assignee hereof.
From a scalp biopsy, a rather fine strip of scalp was isolated using a scalpel. The adipose tissue surrounding the follicles was removed with microforceps while avoiding damage to the hair bulb. The follicles were cut out with a scalpel under a microscope in order to separate them from their epidermal and dermal surroundings.
The follicles were then cultured in the wells of Costar-type 24-well plates, at the rate of one follicle per well. Each well contained 0.5 ml of Williams' medium E, to which had been added penicillin and Streptomycin to a final concentration of 50 IU/ml, glutamine to 2 mM, bovine insulin to 0.01 mg/ml and hydrocortisone to 0.04 mg/ml.
The follicles were then measured using a microscope equipped with a micrometric eyepiece.
After 24 hours, the follicles were again measured and those which had lengthened by less than 0.3 divisions of the micrometer, corresponding to 0.16 mm, were discarded.
The five (5) following culturing conditions were tested:
Condition A: Complete Williams' medium E, without peptide.
Condition B: Complete Williams' medium E+10 mM Ac-LPV-NH2.
Condition C: Complete Williams' medium E+1 mM Ac-LPV-N2.
Condition D: Complete Williams' medium E+0.1 mM Ac-LPV-NH2.

[1] = summary in words, versus medium without peptide

SMILES: CC(=O)N[C@@H](CCCCN)C(=O)N1CCC[C@H]1C(=O)N[C@H](C(N)=O)C(C)C [Acetyl-Lys-Pro-Val-NH2] (Ac-Lys-Pro-Val-NH2)
- Mean lengthening (1 mM (Conditions C, E) in complete Williams' medium E, day 0): 0.00
- % Survival (1 mM (Conditions C, E), day 0): 100%
- % Survival (1 mM (Conditions C, E), day 1): 100%
- Mean lengthening (1 mM (Conditions C, E), day 1): 0.38
- % Survival (1 mM (Conditions C, E), day 4): 100%
- Mean lengthening (1 mM (Conditions C, E), day 4): 1.05
- % Survival (1 mM (Conditions C, E), day 5): 100%
- Mean lengthening (1 mM (Conditions C, E), day 5): 1.21
- % Survival (1 mM (Conditions C, E), day 6): 100%
- Mean lengthening (1 mM (Conditions C, E), day 6): 1.28
- % Survival (1 mM (Conditions C, E), day 7): 91%
- Mean lengthening (1 mM (Conditions C, E), day 7): 1.42
- % Survival (1 mM (Conditions C, E), day 8): 55%
- Mean lengthening (1 mM (Conditions C, E), day 8): 1.39
- % Survival (1 mM (Conditions C, E), day 11): 36%
- Mean lengthening (1 mM (Conditions C, E), day 11): 1.70
- Mean lengthening (Condition B, 10 mM in complete Williams' medium E, day 0): 0.00
- % Survival (Condition B, 10 mM, day 0): 100%
- % Survival (Condition B, 10 mM, day 1): 100%
- Mean lengthening (Condition B, 10 mM, day 1): 0.38
- % Survival (Condition B, 10 mM, day 4): 100%
- Mean lengthening (Condition B, 10 mM, day 4): 1.11
- % Survival (Condition B, 10 mM, day 5): 100%
- Mean lengthening (Condition B, 10 mM, day 5): 1.33
- % Survival (Condition B, 10 mM, day 6): 100%
- Mean lengthening (Condition B, 10 mM, day 6): 1.43
- % Survival (Condition B, 10 mM, day 7): 100%
- Mean lengthening (Condition B, 10 mM, day 7): 1.54
- % Survival (Condition B, 10 mM, day 8): 92%
- Mean lengthening (Condition B, 10 mM, day 8): 1.74
- % Survival (Condition B, 10 mM, day 11): 83%
- Mean lengthening (Condition B, 10 mM, day 11): 1.96
- % Survival (Condition B, 10 mM, day 12): 42%
- Mean lengthening (Condition B, 10 mM, day 12): 2.40
- Mean lengthening (Condition D, 0.1 mM in complete Williams' medium E, day 0): 0.00
- % Survival (Condition D, 0.1 mM, day 0): 100%
- % Survival (Condition D, 0.1 mM, day 1): 100%
- Mean lengthening (Condition D, 0.1 mM, day 1): 0.37
- % Survival (Condition D, 0.1 mM, day 4): 100%
- Mean lengthening (Condition D, 0.1 mM, day 4): 1.10
- % Survival (Condition D, 0.1 mM, day 5): 100%
- Mean lengthening (Condition D, 0.1 mM, day 5): 1.22
- % Survival (Condition D, 0.1 mM, day 6): 100%
- Mean lengthening (Condition D, 0.1 mM, day 6): 1.28
- % Survival (Condition D, 0.1 mM, day 7): 83%
- Mean lengthening (Condition D, 0.1 mM, day 7): 1.42
- % Survival (Condition D, 0.1 mM, day 8): 50%
- Mean lengthening (Condition D, 0.1 mM, day 8): 1.58
- % Survival (Condition D, 0.1 mM, day 11): 42%
- Mean lengthening (Condition D, 0.1 mM, day 11): 2.08
- % Survival (Condition D, 0.1 mM, day 12): 17%
- Mean lengthening (Condition D, 0.1 mM, day 12): 2.11
- effect on lengthening of the cultured hair follicles [1]: promoted the lengthening
- effect on survival time of the cultured hair follicles [1]: increased their survival time
